Test results: publication PMC8560999 (The Journal of Biological Chemistry, 2021)
Read-outs that look alike come from different tables or passages of the source.

Key:
[1] = target: 4-hydroxy-2-keto-heptane-1,7-dioate aldolase from Acinetobacter baumannii (Acinetobacter baumannii); assay: SEC; Superdex 200 Increase 10/300 GL, 10 mM HEPES pH 7.0 with 150 mM NaCl, 0.5 ml/min, 25 °C, calibrated with protein standards of 12.4-440 kDa
[2] = target: 4-hydroxy-2-keto-heptane-1,7-dioate aldolase from Acinetobacter baumannii (Acinetobacter baumannii); assay: crystal structure; 11 structures of AbHpaI (apo and with M2+ and ligands), monoclinic C2 crystals, trimer per asymmetric unit, hexamer by twofold rotational symmetry; crystals grown with sodium acetate pH 4.6, CaCl2 and 30% MPD
[3] = test system: AbHpaI•Zn^2+; assay type: biochemical, Acinetobacter baumannii
[4] = test system: AbHpaI•Zn^2+; assay type: biochemical, Acinetobacter baumannii; remark: listed apart in the source
[5] = test system: AbHpaI•Zn^2+; assay: Steady-state aldol cleavage followed as substrate depletion by RapidFire high-throughput mass spectrometry in 10 mM HEPES pH 7.0 with 0.1 mM Zn2+ and 5 uM ((4R)-KDGal) or 40 uM ((4S)-KDGlu) enzyme, Michaelis-Menten fit.; assay type: biochemical
Experimental: The aldol cleavage steady-state kinetics of (4R)-KDGal and (4S)-KDGlu catalyzed by AbHpaI•Zn^2+ were carried out using RapidFire high-throughput mass spectrometry. The reactions contained 0.1 mM ZnCl2 and the purified AbHpaI in buffer H and varying concentrations of the substrate. […] Before RapidFire analysis, the reaction was quenched by an equal volume of ACN at various times (0.5–30 min) and the quenched solution was centrifuged at 12,000g for 10 min and filtered by a 0.22-μm nylon membrane syringe filter (FilterBio Nylon Syringe Filter) to obtain the filtrate of the remaining substrate. The substrate control reaction without the enzyme was performed. […] Peak areas of the remaining substrate were measured in a negative mode with a quantitative selected ion monitoring (SIM) mode to detect the m/z 177.0 ([M-H]^−) of both (4R)-KDGal and (4S)-KDGlu, and the concentrations were determined from the calibration plot of substrate standard concentrations (0.025–3.2 mM) versus peak areas. The initial velocity (νo) of the substrate depletion from each individual concentration of substrate was calculated from the slope of the plot between the remaining substrate and time. The plots of νo versus each substrate concentration were analyzed by Michaelis–Menten equation using the Levenberg–Marquardt algorithms in GraphPad Prism version 7 software (GraphPad Software, Inc) to determine Km and kcat.

[6] = test system: BxBphI; settings: cited from earlier work
[7] = test system: AbHpaI; assay type: biochemical, Acinetobacter baumannii
[8] = test system: AbHpaI; assay type: physicochemical, Acinetobacter baumannii
[9] = test system: AbHpaI; assay type: binding, Acinetobacter baumannii
[10] = test system: AbHpaI; assay type: physicochemical, Acinetobacter baumannii; remark: listed apart in the source
[11] = test system: AbHpaI•Zn^2+; settings: read-out: Km (mM), aldol condensation of (4R)-KDGal synthesis, D-glyceraldehyde varied
[12] = test system: EcHpaI; settings: cited from earlier work
[13] = target: AbHpaI•Co^2+; assay: Isothermal titration calorimetry (MicroCal PEAQ-ITC) of 10 mM pyruvate into 40 uM apo-AbHpaI mixed with metal ion at 10 times its Kd, 50 mM HEPES pH 7.0, 25 °C, one-site binding model.
Experimental: (§1) The Kd values for the binding of AbHpaI with ligands including M^2+ ions (Zn^2+, Co^2+, Mn^2+, Mg^2+, and Ca^2+) and pyruvate were measured by MicroCal PEAQ-ITC technique (Malvern Panalytical). Briefly, a 10-ml solution of apo-AbHpaI (200 μM) was dialyzed in 2 l of buffer F at 4 °C for 16 to 18 h. The dialyzed buffer was used to prepare a stock solution of each ligand. To measure the Kd value for the AbHpaI•M^2+ complex, a 200-μl solution of the apo-AbHpaI (40 μM) was loaded into the sample cell and the Milli-Q Type I ultrapure water was used as a reference. Three microliters of 1.5 mM ligand solution of each M^2+ in a syringe was continuously titrated into the sample cell (0.3 μM per each injection for 13 injections) until the ligand binding reached an equilibrium at 25 °C. The Microcal PEAQ-ITC analysis software was used to calculate the Kd using the one-site binding model. To determine the pyruvate binding constant to AbHpaI, a 200-μl solution of the apo-AbHpaI (40 μM) was placed in the sample cell and sequentially titrated with 3 μl of 10 mM pyruvate solution from a syringe. To determine the pyruvate binding constant to the AbHpaI•M^2+ complex, a 200-μl solution of the mixture of apo-AbHpaI (40 μM) and 10 Kd of each M^2+ was placed in the sample cell and sequentially titrated with 3 μl of a 10 mM solution mixture of pyruvate and 10 Kd of each M^2+.

[14] = target: AbHpaI•Mn^2+; assay: as above
Experimental: as §1

[15] = target: AbHpaI•Zn^2+; assay: as above
Experimental: as §1

4-hydroxy-2-keto-heptane-1,7-dioate aldolase from Acinetobacter baumannii (enzyme)
stoichiometry N [1]: 6
stoichiometry N [2]: 6

O=C(O)C(=O)CC(O)C(O)CO [(4R)-KDGal, (4R)-2-keto-3-deoxy-D-galactonate]
Km [3]: 300 ± 100 µM
kcat [3]: 0.05 ± 0.005 s⁻¹
kcat of cleavage, fold faster than (4S)-KDGlu [3]: 18 fold
kcat/Km of cleavage, fold greater than (4S)-KDGlu [3]: about 36 fold
turnover number of (4R)-KDGal synthesis [4]: ~1.67 s⁻¹

O=C(O)C(=O)C[C@@H](O)[C@H](O)CO [(4R)-KDGal, (4R)-2-keto-3-deoxy-D-galactonate]
Km [5]: 0.3 ± 0.1 mM

C[C@H](O)CC(=O)C(=O)O [(4S)-HOPA, 4-hydroxy-2-oxopentanoate]
turnover number, aldol cleavage [6]: 4 s⁻¹
turnover number, condensation [6]: 0.9 s⁻¹

O=C(O)C(=O)C[C@H](O)[C@H](O)CO [(4S)-KDGlu, (4S)-2-keto-3-deoxy-D-gluconate]
kcat [3]: 0.00283 ± 0.00017 s⁻¹
Km [5]: 0.6 ± 0.1 mM
(4S)-KDGlu formation as compared to (4R)-KDGal [7]: 0.1%

CC#N [ACN, acetronitrile]
protein stability of AbHpaI perturbed [8]: 10%

[Ca+2] [Ca^2+]
mole ratio of metal ion per AbHpaI [9]: 0.1

[Co+2] [Co^2+]
mole ratio of metal ion per AbHpaI [9]: 0.8
ΔTm [10]: 3.4 °C

O=C[C@H](O)CO [D-Glyceraldehyde, D-glyceraldehyde]
kcat [4]: 2.048 ± 0.293 s⁻¹
Km [11]: 10.6 ± 3.6 mM

C[S+](C)[O-] [DMSO, dimethylsulfoxide]
protein stability of AbHpaI perturbed [8]: 10%

CO [MeOH, methanol]
protein stability of AbHpaI perturbed [8]: 10%

[Mg+2] [Mg^2+]
mole ratio of metal ion per AbHpaI [9]: 0.6

[Mn+2] [Mn^2+]
mole ratio of metal ion per AbHpaI [9]: 0.6
ΔTm [10]: 1.7 °C

CC(=O)C(=O)O [Pyruvate, pyruvate]
pKa of pyruvate C3-methyl [12]: ~6.5
Kd [13]: 320 ± 40 µM
Kd [14]: 1320 ± 500 µM
Kd [15]: 980 ± 60 µM
Km [4]: 1600 ± 700 µM
kcat [4]: 1.713 ± 0.265 s⁻¹

[Zn+2] [Zn^2+]
mole ratio of metal ion per AbHpaI [9]: 1.1
Tm [10]: 87 °C
ΔTm [10]: 5.7 °C
